Measured values: publication PMC10272180, “Ancient medicinal plant rosemary contains a highly efficacious and isoform-selective KCNQ potassium channel opener” (Communications Biology, 2023)

Experiments:
KCNQ3*-L198F = KCNQ3*-L198F (Homo sapiens, UniProt O43525, A315T/L198F); experiment: TEVC of mutant KCNQ3*-L198F in oocytes; format: cell-based
Source text: (§1) We generated cRNA transcripts encoding human KCNQ1, 2, 3, and 5 (wild-type and mutant) by in vitro transcription using the mMessage mMachine kit (Thermo Fisher Scientific, Waltham, MA, USA) according to manufacturer’s instructions, after vector linearization, from cDNA sub-cloned into expression vectors (pTLNx and pXOOM) incorporating Xenopus laevis β-globin 5’ and 3’ UTRs flanking the coding region to enhance translation and cRNA stability. Mutant KCNQ cDNAs were generated by Genscript (Piscataway, NJ, USA) and cRNAs made as above. We injected defolliculated stage V and VI Xenopus laevis oocytes (Xenoocyte, Dexter, MI, USA) with KCNQ cRNAs (2–10 ng) and incubated the oocytes at 16 °C in ND96 oocyte storage solution containing penicillin and streptomycin, with daily washing, for 2–4 days prior to two-electrode voltage-clamp (TEVC) recording.
We performed TEVC at room temperature using an OC-725C amplifier (Warner Instruments, Hamden, CT, USA) and pClamp10 software (Molecular Devices, Sunnyvale, CA, USA) 2–4 days after cRNA injection. We placed oocytes in a small-volume oocyte bath (Warner) and viewed them with a dissection microscope for cellular electrophysiology. We sourced chemicals from Sigma-Aldrich (St. Louis, MO, USA) and Combi-Blocks (San Diego, CA, USA). We studied effects of Salvia rosmarinus extracts and of compounds, solubilized directly in bath solution (in mM): 96 NaCl, 4 KCl, 1 MgCl2, 1 CaCl2, 10 HEPES (pH 7.6). We introduced extracts or compounds into the oocyte recording bath by gravity perfusion at a constant flow of 1 ml per minute for 3 min prior to recording. Pipettes were of 1-2 MΩ resistance when filled with 3 M KCl. […] We analyzed data using Clampfit (Molecular Devices) and Graphpad Prism software (GraphPad, San Diego, CA, USA), stating values as mean ± SEM. We plotted raw or normalized tail currents versus prepulse voltage and fitted with a single Boltzmann function:1 g=(A1−A2)/1+exp[V1/2−V/Vs]y+A2 where g is the normalized tail conductance, A1 is the initial value at -∞, A2 is the final value at +∞, V1/2 is the half-maximal voltage of activation and Vs the slope factor. We fitted activation and deactivation kinetics with single exponential functions.

KCNQ3*-R243A = KCNQ3*-R243A (Homo sapiens, UniProt O43525, A315T/R243A); experiment: TEVC of mutant KCNQ3*-R243A in oocytes; format: cell-based; conditions: 100 µM
Source text: as §1
We performed TEVC at room temperature using an OC-725C amplifier (Warner Instruments, Hamden, CT, USA) and pClamp10 software (Molecular Devices, Sunnyvale, CA, USA) 2–4 days after cRNA injection. […] We recorded currents in response to voltage pulses between −120 mV and +40 mV at 10 mV intervals from a holding potential of −80 mV, to yield current-voltage relationships and examine activation kinetics. We analyzed data using Clampfit (Molecular Devices) and Graphpad Prism software (GraphPad, San Diego, CA, USA), stating values as mean ± SEM. […]

KCNQ2/3/5 = target: T1, KCNQ2/3/5 (Homo sapiens, UniProt O43525+O43526+Q9NR82); experiment: TEVC of KCNQ2/3/5 heteromers expressed in Xenopus laevis oocytes; format: cell-based
T1 construct: expressed in transfected cells; host or cells: Xenopus laevis oocytes co-injected with cRNAs (1:1:1 according to the authors' reply)
Source text: as §1
(§2) We performed TEVC at room temperature using an OC-725C amplifier (Warner Instruments, Hamden, CT, USA) and pClamp10 software (Molecular Devices, Sunnyvale, CA, USA) 2–4 days after cRNA injection. We placed oocytes in a small-volume oocyte bath (Warner) and viewed them with a dissection microscope for cellular electrophysiology. We sourced chemicals from Sigma-Aldrich (St. Louis, MO, USA) and Combi-Blocks (San Diego, CA, USA). We studied effects of Salvia rosmarinus extracts and of compounds, solubilized directly in bath solution (in mM): 96 NaCl, 4 KCl, 1 MgCl2, 1 CaCl2, 10 HEPES (pH 7.6). We introduced extracts or compounds into the oocyte recording bath by gravity perfusion at a constant flow of 1 ml per minute for 3 min prior to recording. Pipettes were of 1-2 MΩ resistance when filled with 3 M KCl. We recorded currents in response to voltage pulses between −120 mV and +40 mV at 10 mV intervals from a holding potential of −80 mV, to yield current-voltage relationships and examine activation kinetics. We analyzed data using Clampfit (Molecular Devices) and Graphpad Prism software (GraphPad, San Diego, CA, USA), stating values as mean ± SEM. We plotted raw or normalized tail currents versus prepulse voltage and fitted with a single Boltzmann function:1 g=(A1−A2)/1+exp[V1/2−V/Vs]y+A2 where g is the normalized tail conductance, A1 is the initial value at -∞, A2 is the final value at +∞, V1/2 is the half-maximal voltage of activation and Vs the slope factor. We fitted activation and deactivation kinetics with single exponential functions.

KCNQ3*-G244A = KCNQ3*-G244A (Homo sapiens, UniProt O43525, A315T/G244A); experiment: TEVC of mutant KCNQ3*-G244A in oocytes; format: cell-based; conditions: 100 µM
Source text: as §1
as §2, with “We plotted raw or normalized tail currents versus prepulse voltage and fitted with a single Boltzmann function:1 g=(A1−A2)/1+exp[V1/2−V/Vs]y+A2 where g is the normalized tail conductance, A1 is the initial value at -∞, A2 is the final value at +∞, V1/2 is the half-maximal voltage of activation and Vs the slope factor. We fitted activation and deactivation kinetics with single exponential functions.” left out

mice = conditions: acute toxicity; cited from earlier work
KCNQ5 = KCNQ5 (Homo sapiens, UniProt Q9NR82); experiment: TEVC of KCNQ5 homomers expressed in Xenopus laevis oocytes; format: cell-based
Source text: as §1, §2

KCNQ3*-R242A = KCNQ3*-R242A (Homo sapiens, UniProt O43525, A315T/R242A); experiment: TEVC of mutant KCNQ3*-R242A in oocytes; format: cell-based
Source text: as §1, §2

KCNQ3*-M240A = KCNQ3*-M240A (Homo sapiens, UniProt O43525, A315T/M240A); experiment: TEVC of mutant KCNQ3*-M240A in oocytes; format: cell-based; conditions: 100 µM
Source text: as §1
as §2, with “We plotted raw or normalized tail currents versus prepulse voltage and fitted with a single Boltzmann function:1 g=(A1−A2)/1+exp[V1/2−V/Vs]y+A2 where g is the normalized tail conductance, A1 is the initial value at -∞, A2 is the final value at +∞, V1/2 is the half-maximal voltage of activation and Vs the slope factor. We fitted activation and deactivation kinetics with single exponential functions.” left out

KCNQ3*-P211A = KCNQ3*-P211A (Homo sapiens, UniProt O43525, A315T/P211A); experiment: TEVC of mutant KCNQ3*-P211A in oocytes; format: cell-based
Source text: as §1, §2

Which “V0.5 Normalized tail current” value (KCNQ3*-L198F; 0.1 µM) does the source give for CC(C)c1cc2c(c(O)c1O)[C@@]1(C(=O)O)CCCC(C)(C)[C@@H]1CC2 [Carnosic acid, carnosic acid] here?
Its value is -58.22 ± 0.59 mV.

What about the “V0.5 Normalized tail current” value (KCNQ3*-L198F; 1 µM) of the same compound?
The value was -62.90 ± 0.79 mV.

And the “V0.5 Normalized tail current” value (KCNQ3*-L198F; 3 µM)?
The value was -73.56 ± 0.79 mV.

And the “V0.5 Normalized tail current” value (KCNQ3*-L198F; 10 µM)?
The value was -91.66 ± 1.99 mV.

What about the “V0.5 Normalized tail current” value (KCNQ3*-L198F; 30 µM) of the same compound?
The value was -116.6 ± 3.44 mV.

What about the EC50 (KCNQ3*-L198F; EC50 EM) of the same compound?
Its EC50 is 1.15 ± 0.12 µM.

And the EC50 (KCNQ3*-L198F; EC50 V0.5 Activation)?
Its EC50 is 6.28 ± 0.08 µM.

What about the “carnosic acid efficacy and potency compared with KCNQ3*” value (KCNQ3*-L198F; dose-response) of the same compound?
Its value is “very similarly”.

What about the Slope (KCNQ3*-R243A) of the same compound?
The Slope was 9.48 ± 0.54 mV.

What about the “V0.5 Normalized tail current” value (KCNQ3*-R243A) of the same compound?
Its value is -64.93 ± 0.61 mV.

What about the “V0.5 Normalized tail current” value (KCNQ2/3/5; 0.1 µM) of the same compound?
Its value is -43.51 ± 1.17 mV.

And the “V0.5 Normalized tail current” value (KCNQ2/3/5; 1 µM)?
Its value is -47.43 ± 0.94 mV.

And the “V0.5 Normalized tail current” value (KCNQ2/3/5; 3 µM)?
The value was -49.89 ± 0.88 mV.

And the “V0.5 Normalized tail current” value (KCNQ2/3/5; 10 µM)?
The value was -52.31 ± 0.77 mV.

What about the “V0.5 Normalized tail current” value (KCNQ2/3/5; 30 µM) of the same compound?
The value was -54.68 ± 0.89 mV.

What about the “V0.5 Normalized tail current” value (KCNQ2/3/5; 100 µM) of the same compound?
Its value is -57.42 ± 1.03 mV.

What about the EC50 (KCNQ2/3/5; EC50 EM) of the same compound?
The EC50 was 3.13 ± 0.44 µM.

And the EC50 (KCNQ2/3/5; EC50 V0.5 Activation)?
The EC50 was 2.02 ± 0.44 µM.

And the Slope (KCNQ3*-G244A)?
The Slope was 11.55 ± 1.94 mV.

What about the “V0.5 Normalized tail current” value (KCNQ3*-G244A) of the same compound?
Its value is -97.68 ± 3.18 mV.

What about the “carnosic acid effects compared with KCNQ3*” value (KCNQ3*-G244A) of the same compound?
Its value is “indistinguishably”.

What about the “oral LD50” value (mice) of the same compound?
Its value is 7100 mg/kg.

What about the “V0.5 Normalized tail current” value (KCNQ5; 0.1 µM) of the same compound?
Its value is -42.57 ± 0.34 mV.

What about the “V0.5 Normalized tail current” value (KCNQ5; 1 µM) of the same compound?
The value was -42.20 ± 0.27 mV.

What about the “V0.5 Normalized tail current” value (KCNQ5; 3 µM) of the same compound?
The value was -42.54 ± 0.31 mV.

What about the “V0.5 Normalized tail current” value (KCNQ5; 10 µM) of the same compound?
Its value is -43.64 ± 0.36 mV.

And the “V0.5 Normalized tail current” value (KCNQ5; 30 µM)?
Its value is -45.91 ± 0.40 mV.

What about the “V0.5 Normalized tail current” value (KCNQ5; 100 µM) of the same compound?
Its value is -50.99 ± 0.49 mV.

What about the “constitutively activated current at −120 mV” value (KCNQ5; 100 µM) of the same compound?
Its value is ~ 5%.

And the EC50 (KCNQ5; EC50 EM)?
The EC50 was 43.4 ± 0.28 µM.

And the EC50 (KCNQ5; EC50 V0.5 Activation)?
The EC50 was 231 ± 75 µM.

What about the EC50 (KCNQ3*-R242A) of the same compound?
The EC50 was 8.31 ± 0.14 µM.

And the “V0.5 Normalized tail current” value (KCNQ3*-R242A; 0.1 µM)?
Its value is -21.11 ± 0.68 mV.

And the “V0.5 Normalized tail current” value (KCNQ3*-R242A; 1 µM)?
The value was -24.52 ± 0.42 mV.

What about the “V0.5 Normalized tail current” value (KCNQ3*-R242A; 3 µM) of the same compound?
Its value is -27.59 ± 0.38 mV.

What about the “V0.5 Normalized tail current” value (KCNQ3*-R242A; 10 µM) of the same compound?
Its value is -30.42 ± 0.37 mV.

What about the “V0.5 Normalized tail current” value (KCNQ3*-R242A; 30 µM) of the same compound?
Its value is -35.30 ± 0.41 mV.

And the Slope (KCNQ3*-R242A; 100 µM)?
The Slope was 8.88 ± 0.59 mV.

And the “efficacy in terms of ΔV0.5act versus KCNQ3*” value (KCNQ3*-R242A; dose-response)?
Its value is “halved”.

And the Slope (KCNQ3*-M240A)?
The Slope was 17.31 ± 1.56 mV.

And the “V0.5 Normalized tail current” value (KCNQ3*-M240A)?
Its value is -66.81 ± 1.80 mV.

What about the “constitutive current at −120 mV” value (KCNQ3*-M240A) of the same compound?
The value was 20%.

What about the “V0.5 Normalized tail current” value (KCNQ3*-P211A; 0.1 µM) of the same compound?
The value was -55.16 ± 1.00 mV.

What about the “V0.5 Normalized tail current” value (KCNQ3*-P211A; 1 µM) of the same compound?
The value was -59.20 ± 1.17 mV.

And the “V0.5 Normalized tail current” value (KCNQ3*-P211A; 3 µM)?
The value was -61.55 ± 1.44 mV.

What about the “V0.5 Normalized tail current” value (KCNQ3*-P211A; 10 µM) of the same compound?
Its value is -78.35 ± 1.93 mV.

And the “V0.5 Normalized tail current” value (KCNQ3*-P211A; 30 µM)?
The value was -98.23 ± 4.44 mV.

And the “V0.5 Normalized tail current” value (KCNQ3*-P211A; 100 µM)?
Its value is -110.7 ± 3.83 mV.

What about the EC50 (KCNQ3*-P211A; EC50 EM) of the same compound?
The EC50 was 3.21 ± 0.21 µM.

And the EC50 (KCNQ3*-P211A; EC50 V0.5 Activation)?
The EC50 was 15.25 ± 0.07 µM.

What about the “carnosic acid efficacy and potency compared with KCNQ3*” value (KCNQ3*-P211A; dose-response) of the same compound?
The value was “very similarly”.
